Measured values from PubChem BioAssay (NCI).
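Cultured in 96-well plates, cells were exposed to test compound for 48 hours across five concentrations. Definition used: TGI = concentration required for complete inhibition of growth.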

Key:
Experiment in all cases: NCI tumour cell line growth inhibition, 48 h
[1] = test system: 786-0 renal
[2] = test system: NCI-H226 lung
[3] = test system: COLO 205 colon
[4] = test system: BT-549 breast
[5] = test system: MDA-N
[6] = test system: HCT-15 colon
[7] = test system: OVCAR-4 ovarian
[8] = test system: NCI-H522 lung
[9] = test system: UACC-62 melanoma
[10] = test system: CCRF-CEM leukemia
[11] = test system: OVCAR-5 ovarian
[12] = test system: U251 CNS
[13] = test system: LOX IMVI melanoma
[14] = test system: MCF7 breast
[15] = test system: SN12C renal
[16] = test system: NCI/ADR-RES ovarian
[17] = test system: HL-60(TB) leukemia
[18] = test system: DU-145 prostate
[19] = test system: OVCAR-3 ovarian
[20] = test system: SNB-19 CNS
[21] = test system: RPMI-8226 leukemia
[22] = test system: OVCAR-8 ovarian
[23] = test system: KM12 colon
[24] = test system: SK-MEL-28 melanoma
[25] = test system: SNB-75 CNS
[26] = test system: MDA-MB-231 breast
[27] = test system: HCT-116 colon
[28] = test system: SK-MEL-5 melanoma
[29] = test system: HS 578T breast
[30] = test system: EKVX NSCLC
[31] = test system: MOLT-4 leukemia
[32] = test system: SK-OV-3 ovarian
[33] = test system: A549 NSCLC
[34] = test system: HCC-2998 colon
[35] = test system: IGROV1 ovarian
[36] = test system: SR leukemia
[37] = test system: HOP-62 NSCLC
[38] = test system: A498 renal
[39] = test system: HOP-92 NSCLC
[40] = test system: RXF 393 renal
[41] = test system: K-562 leukemia
[42] = test system: SF-268 CNS
[43] = test system: SF-295 CNS
[44] = test system: PC-3 prostate
[45] = test system: HT29 colon
[46] = test system: T-47D breast
[47] = test system: SW-620 colon
[48] = test system: UO-31 renal
[49] = test system: M14 melanoma
[50] = test system: NCI-H23 lung
[51] = test system: UACC-257 melanoma
[52] = test system: MALME-3M melanoma
[53] = test system: ACHN renal
[54] = test system: MDA-MB-435
[55] = test system: CAKI-1 renal
[56] = test system: TK-10 renal
[57] = test system: SK-MEL-2 melanoma

COc1cc(C2S/C(=C/c3ccccc3)C(=O)N2c2ccccn2)cc(OC)c1OC (configuration not stated)
TGI [1]: 31.4 µM | TGI [2]: > 96.4 µM | TGI [3]: > 78.8 µM | TGI [4]: 39 µM | TGI [5]: 34.4 µM | TGI [6]: 36.4 µM | TGI [7]: 63.2 µM | TGI [8]: 24.6 µM | TGI [9]: 29.8 µM | TGI [10]: > 100 µM | TGI [11]: 41.2 µM | TGI [12]: 28.1 µM | TGI [13]: 26.9 µM | TGI [14]: > 57.9 µM | TGI [15]: 33.6 µM | TGI [16]: 54 µM | TGI [17]: > 100 µM | TGI [18]: 31.9 µM | TGI [19]: 44.4 µM | TGI [20]: 46.5 µM | TGI [21]: 73.3 µM | TGI [22]: 31.2 µM | TGI [23]: 29.4 µM | TGI [24]: > 74 µM | TGI [25]: 39.7 µM | TGI [26]: > 84.8 µM | TGI [27]: 20.6 µM | TGI [28]: 56.6 µM | TGI [29]: > 68 µM | TGI [30]: 76.1 µM | TGI [31]: > 100 µM | TGI [32]: > 90.6 µM | TGI [33]: > 64 µM | TGI [34]: 32.8 µM | TGI [35]: 29.9 µM | TGI [36]: > 100 µM | TGI [37]: 48.8 µM | TGI [38]: 33.4 µM | TGI [39]: 33.6 µM | TGI [40]: 22.8 µM | TGI [41]: > 100 µM | TGI [42]: 36.2 µM | TGI [43]: > 83.3 µM | TGI [44]: > 81.7 µM | TGI [45]: > 47 µM | TGI [46]: 36.3 µM | TGI [47]: 64.3 µM | TGI [48]: 28.8 µM | TGI [49]: 31.8 µM | TGI [50]: 34 µM | TGI [51]: > 100 µM | TGI [52]: 27.5 µM | TGI [53]: 29.8 µM | TGI [54]: 29.3 µM | TGI [55]: 52.3 µM | TGI [56]: > 100 µM | TGI [57]: > 71.3 µM
